According to article PMC12598616, “Design and optimization of caspase-1-responsive fluorescent probes for pyroptosis imaging and anti-pyroptosis drug screening” (Chemical Science, 2025):

System: Cas-1 in NP cell spheroids
Assay: Imaging in nucleus pulposus 3D cell spheroids
Assay type: cell-based, rat
Conditions: H2O2 2 mM 30, 60, 90 min; FPy1 5 μM; compared with 2D cells
Text: With advancing age, the prevalence of degenerative bone and joint disorders (DBJDs), such as intervertebral disc degeneration (IVDD) and osteoarthritis (OA), increases markedly among middle-aged and elderly individuals.[30] Chronic inflammation has been identified as the underlying cause of DBJDs. In particular, inflammasome-mediated pyroptosis has been recognized as a primary contributor to sustained inflammatory responses.[31] Consequently, pyroptosis-associated biomarkers represent promising indicators for the diagnosis and monitoring of DBJDs. IVDD, a chronic degenerative condition closely related to natural aging, has become one of the leading causes of disability worldwide.[32] […] The imaging results indicated a positive correlation between fluorescence intensity and H2O2-stimulation time (Fig. 4b). […] Encouraged by the promising imaging results of FPy1 in NP cells and cell spheroids, we further assessed its capability for imaging pytoptosis in vivo. […] Following intradiscal injection of FPy1, the fluorescence images of the tail modeling site were obtained from the dorsal aspect. […] Histological scoring result corroborated these findings, reflecting the same trends as with fluorescence imaging observed using FPy1 (Fig. S13b). […]
The cytotoxicity of FPy1 and YPy1 to THP-1 was evaluated by cell counting kit-8 (CCK-8). […]

## –FLTDG– [FPy1, RhoB donor, hNR quencher]
  fluorescence enhancement in NP spheroids: the fluorescence enhancement in the spheroids was more pronounced
